Earlier results, collected in patent US20030104085A1, “Methods and compositions for treating back pain” (priority 2001, published 2003).

Assays:
[1] = tested on: nerve endings in the skin; conditions: topical administration; cited from earlier work
rats = conditions: subcutaneous and epidural administration; cited from earlier work

C=C(C)[C@]12C[C@@H](C)[C@@]34O[C@](Cc5ccccc5)(O[C@@H]1[C@@H]3C=C(COC(=O)Cc1ccc(O)c(OC)c1)C[C@]1(O)C(=O)C(C)=C[C@@H]41)O2 [RTX, resiniferatoxin]
sensitivity to chemical pain stimulation [1]: long-lasting insensitivity to chemical pain stimulation | thermal analgesia (rats): produce thermal analgesia | time without restoration of pain sensitivity (rats): over 7 days
